The text below walks through data of patent US6458760B1, “Method for treating tissue damaged from ischemia” (Henry Ford Health System, priority 1998, dated 2002).

One test deals with Cathepsin L (Homo sapiens, UniProt P07711). The test is described as follows: Cathepsin L inactivation rate, fluorimetric progress curves. The class given is biochemical. The note with it: second order inactivation rate constant corrected for substrate; substrate Z-Phe-Arg-AMC; pH 5.4, 30° C. The protocol:
(§1) (“Tian, et al.”) the contents of which are incorporated by reference. More specifically, the value of kobs is given by the slope of a plot of ln [P]∞−[p]t versus t (time). The apparent second-order rate contact for inactivation, k2app was calculated as kobs/[I]. The inactivation-rates (kobs) in the presence of substrate and for different inhibitor concentrations for calpain, cathepsin B and cathepsin L are determined according to the method of Tian, et al. However, k2app is corrected for the presence of substrate (s) to give the second order rate constant k^12app, calculated as k^12app=k2app (1+[s]/Km).
Cathepsins B and L were preactivated with […] DTT in 50 mM sodium acetate buffer, pH 5.4, 1 mM EDTA for 2 h at 4° C. and assayed in the same buffer with 0.01% Brij [poly(oxyethylene) glycol dodecyl ether]. 5 μM (final concentration) CBZ-Phe-Arg-AMC was used as substrate for both for cathepsins B and L. The inhibitors (0.1-1 μM) and substrate were added to the reaction mixture to incubate for 5 min in a cuvette thermostated at 30° C. Then, approximately 0.4 nM and 0.1 nM final concentration of cathepsin B and cathepsin L, respectively, were used to initiate the reaction. […] The progress curves were analyzed over at least 3 half lives to calculate the rate constants of inactivation in accordance with the procedure described by Crawford, C. Mason, R. W., Wilkström, P., and Shaw, E. in an article entitled “The design of peptidyldiazomethane inhibitors to distinguish between the cysteine proteinases calpain II, cathepsin L and cathepsin B.”, Biochem. J. 1988, 253, 751-758, the contents of which are incorporated by reference. The rates of inactivation of various substrates are tabulated hereinbelow.

Another test concerns Calpain. Kind of test: Calpain inactivation rate, fluorimetric progress curves. The note with it: second order inactivation rate constant corrected for substrate; substrate Suc-Leu-Tyr-AMC; pH 7.5, 37° C. It is filed as biochemical. As for the experimental part:
as §1
Calpain was assayed fluorimetrically in 1 ml of 50 mM Tris/acetate buffer, pH 7.5, containing 5 mM CaCl2, 2.5 mM DTT(dithiothreitol), 0.1% Triton X-100 at 37° C., using 2.5×10^−4 M Suc-Leu-Tyr-aminomethylcoumarin (AMC) (Novabiochem, Switzerland) as substrate and 50nM (final concentration) of enzyme. The appearance of the 7-amino-4 methylcoumarin product was recorded continuously with a Perkin Elmer 650-10S spectrofluorimeter, a SPEX Fluorolog 1680, or SLM 8000C fluorescence spectrometer with excitation at 370 nm and emission at 460 nm.
Typically, 5 μL of the substrate solution (50 mM stock in DMSO) was added to 1 mL of buffer. Varying concentrations of the inhibitor solution (10 μL of a DMSO […] solution) were added, followed by 10 μL of calpain in the assay buffer. After allowing the reaction mixture to incubate for 2-5 min, during which time a steady baseline level of fluorescence was measured, calcium was added in a 10-μL volume to initiate hydrolysis of the fluorogenic substrate, and the resulting increase in fluorescence was monitored continuously. When inhibitors were tested at very low concentrations, the enzyme concentration was reduced to maintain a minimum of a 10-fold excess of inhibitor over enzyme.

In a further test the target is Cathepsin B (Homo sapiens, UniProt P07858). The test is described as follows: Cathepsin B inactivation rate, fluorimetric progress curves. The note with it: second order inactivation rate constant corrected for substrate; pH 5.4, 30° C. The class given is biochemical. The protocol:
as §1
Cathepsins B and L were preactivated with […] DTT in 50 mM sodium acetate buffer, pH 5.4, 1 mM EDTA for 2 h at 4° C. and assayed in the same buffer with 0.01% Brij [poly(oxyethylene) glycol dodecyl ether]. […] The inhibitors (0.1-1 μM) and substrate were added to the reaction mixture to incubate for 5 min in a cuvette thermostated at 30° C. Then, approximately 0.4 nM and 0.1 nM final concentration of cathepsin B and cathepsin L, respectively, were used to initiate the reaction. […] The progress curves were analyzed over at least 3 half lives to calculate the rate constants of inactivation in accordance with the procedure described by Crawford, C. Mason, R. W., Wilkström, P., and Shaw, E. in an article entitled “The design of peptidyldiazomethane inhibitors to distinguish between the cysteine proteinases calpain II, cathepsin L and cathepsin B.”, Biochem. J. 1988, 253, 751-758, the contents of which are incorporated by reference. The rates of inactivation of various substrates are tabulated hereinbelow.

Test [1] relates to Wistar rats with MCA occlusion. Kind of test: Stroke model, 2 h MCA occlusion, i.v. infusion after reperfusion, infarct volume at 7 days. The note with it: 2 h MCA occlusion; for % Hemisphere Infarct Volume (% ± SEM): day 7, control 37 ± 2.6. It is filed as in vivo, rat. As for the experimental part:
Male Wistar rat weighing between 270-290 gm are fasted the night prior to surgery. Each rat was then anesthetized with 3.5% halothane, and spontaneously respired with 0.5% halothane in a 2:1 N2O:O2 mixture using a face mask. A normal range of blood gases and pH is maintained during ischemia and reperfusion with the face mask inhalation, as verified by samples taken from a femoral artery PE-50 catheter. Body temperature is maintained constant at 37° C. with a recirculating heating pad and K module with an intrarectal type T thermocouple. The PE-50 catheters are inserted into the femoral artery and vein following induction of anesthesia to obtain the blood gas, glucose and hemoglobin concentrations and to monitor blood pressure.
The right common carotid artery, external carotid artery and internal carotid artery are isolated using microsurgical techniques. A clamp is applied to the common carotid artery and a 4-0 nylon suture with a rounded tip is inserted into the external carotid artery through a small puncture. The clamp on the common carotid artery is removed. The suture is passed distally into the internal carotid artery until it blocks the middle cerebral artery. Two hours after the MCA occlusion, the animal is again anesthetized, and the nylon suture is removed from the internal carotid artery.
Infusion of the inhibitor or vehicle is done by intravenous infusion via the femoral vein.
Syringe pumps were filled under sterile conditions with either isotonic saline/1% DMSO solution as the control or with the concentration of CP-1 or CP-2 indicated in the examples, hereinbelow. The pumps delivered the solution at a rate of 15 μl/min for up to 4 hours.
After anesthesia had been induced in the rat, a catheter was inserted into the femoral vein and tunneled subcutaneously in the posterior neck region. Body temperature was maintained at a constant temperature of 37° C. during surgical procedures. The animals underwent 2 hours of MCA occlusion, and then reperfusion when the suture was withdrawn, and immediately thereafter, the drug was infused for four hours. The animals were killed after a 7-day reperfusion, and the brains were formalin fixed and sliced 6-μm thick into seven coronal sections A-G, and mounted on coated slides. After staining with hematoxylin and eosin, the stroke volume was measured using an image analysis program. The stroke area and the contralateral hemispheric area were calculated by tracing the areas on the computer screen, and the volumes were determined by multiplying the appropriate area by the section interval thickness. The stroke volume is expressed as the percentage of lesion size to the volume of contralateral hemisphere. Statistical analysis was performed using the independent t-test.
CP-1 dissolved in 1% DMSO and isotonic saline was given intravenously to Wistar rats (15 μl/min) at concentrations of 2 μM, 10μM, 50μM and 25μM for 4 hours immediately after reperfusion following two hours of MCA occlusion, in accordance with the procedure described hereinabove. Control animals underwent a similar protocol but they had injected therein 1% DMSO/Saline as the vehicle within four hours. All animals which survived 7 days were sacrificed and the stroke volume calculated. The results are tabulated hereinbelow:
The protocol described hereinabove was repeated with CP-2 used in lieu of CP-1, at doses of 10, 50, 250 and 500 μM.

Non-standard residues stand in square brackets, D forms with d. Residues, ends and D or L forms follow the SMILES beside them. *: point of attachment. Phe(4-NO2) = N[CH](Cc1ccc([N+](=O)[O-])cc1)C(=O)O; Cit = NC(=O)NCCC[CH](N)C(=O)O; Cbz = O=C(OCc1ccccc1)*; CHN2 = [N-]=[N+]=C*; Bn = c1ccc(C*)cc1; tBu = CC(C)(C)*

Sequence of Cathepsin L (P07711 114-333, species assumed): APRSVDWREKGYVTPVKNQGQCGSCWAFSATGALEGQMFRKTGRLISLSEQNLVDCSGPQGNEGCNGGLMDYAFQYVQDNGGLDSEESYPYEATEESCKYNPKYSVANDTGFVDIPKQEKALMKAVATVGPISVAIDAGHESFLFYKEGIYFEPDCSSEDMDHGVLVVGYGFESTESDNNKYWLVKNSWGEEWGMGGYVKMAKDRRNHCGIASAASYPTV

Regarding “benzyloxycarbonyl-Phe-Ala-CHN2 [CBZ-Phe-Ala-CHN2]”, on Cathepsin L, the “Cathepsin L k′2app” value is reported as 160,000 M^−1S^−1. Besides, the “Calpain k′2app” value in the test on Calpain is below 5 M^−1S^−1. Besides, on Cathepsin B, the “Cathepsin B k′2app” value is 1,200 M^−1S^−1.
For `CC(OC(C)(C)C)C(NC(=O)C(Cc1ccccc1)NC(=O)OCc1ccccc1)C(=O)C=[N+]=[N-]` (stereo not drawn) [CBZ-Phe-Thr(OtBu)-CHN2, benzyloxycarbonyl-Phe-Thr(O-t-Bu)-CHN2], on Cathepsin L, the “Cathepsin L k′2app” value was 60,000 M^−1S^−1. Moreover, the “Cathepsin B k′2app” value on Cathepsin B is given as 160 M^−1S^−1.
The like results for `[N-]=[N+]=CC(=O)C(CCCNC(N)=O)NC(=O)C(Cc1ccccc1)NC(=O)OCc1ccccc1` (stereo not drawn) [CBZ-Phe-Cit-CHN2, benzyloxycarbonyl-Phe-Cit-CHN2] (Cbz-Phe-[Cit]-CHN2; configuration not given here) were, in that order, 1,800,000 M^−1S^−1 and 6,700 M^−1S^−1.
The like results for `CC(C)CC(NC(=O)OCc1ccccc1)C(=O)NC(Cc1c[nH]c2ccccc12)C(=O)C=[N+]=[N-]` (stereo not drawn) [CBZ-Leu-Trp-CHN2, benzyloxycarbonyl-Leu-Trp-CHN2] were, in that order, 12,000 M^−1S^−1 and below 50 M^−1S^−1.
Regarding `[N-]=[N+]=CC(=O)[C@H](Cc1ccccc1)NC(=O)[C@H](Cc1ccccc1)NC(=O)OCc1ccccc1` [CBZ-Phe-Phe-CHN2, benzyloxycarbonyl-Phe-Phe-CHN2] (Cbz-Phe-Phe-CHN2), the “Cathepsin L k′2app” value at Cathepsin L is 140,000 M^−1S^−1. Also, the “Cathepsin B k′2app” value on Cathepsin B is listed as 350 M^−1S^−1.
As to `CC(NC(=O)C(Cc1ccc(I)cc1)NC(=O)OCc1ccccc1)C(=O)C=[N+]=[N-]` (stereo not drawn) [CBZ-Phe(I)-Ala-CHN2, benzyloxycarbonyl-Phe (I) -Ala-CHN2], the “Cathepsin L k′2app” value on Cathepsin L was 130,000 M^−1S^−1. Also, the “Cathepsin B k′2app” value on Cathepsin B was determined as 980 M^−1S^−1.
As for `CC(C)(C)Oc1ccc(CC(NC(=O)C(Cc2ccccc2)NC(=O)OCc2ccccc2)C(=O)C=[N+]=[N-])cc1` (stereo not drawn) [CP-2, benzyloxycarbonyl-Phe-Tyr(OtBu)-CHN2] (Cbz-Phe-Tyr(tBu)-CHN2; configuration not given here), the “Cathepsin L k′2app” value at Cathepsin L is given as 200,000 M^−1S^−1. Also, in the test with Calpain, the “Calpain k′2app” value is listed as below 10 M^−1S^−1. Besides, the “% Hemisphere Infarct Volume (% ± SEM)” value is given as 28 ± 4.6, p > 0.05% in test [1] (10 μM i.v. 15 μl/min for 4 h after reperfusion); 35 ± 4.8, p > 0.05% in test [1] (50 μM i.v. 15 μl/min for 4 h after reperfusion); 21 ± 4.7, p = 0.01% in test [1] (250 μM i.v. 15 μl/min for 4 h after reperfusion); 22 ± 3.5, p = 0.004% in test [1] (500 μM i.v. 15 μl/min for 4 h after reperfusion). The “effectiveness in reducing stroke damage” value in test [1] (doses 10, 50, 250 and 500 μM) was “High doses of CP-2 were effective, but not the lower doses”. Moreover, the “Cathepsin B k′2app” value on Cathepsin B came to 10 M^−1S^−1.
`[N-]=[N+]=CC(=O)C(CSCc1ccccc1)NC(=O)C(Cc1ccccc1)NC(=O)OCc1ccccc1` (stereo not drawn) [CBZ-Phe-Cys(SBnz1)-CHN2, benzyloxycarbonyl-Phe-Cys-(SBz)-CHN2] (Cbz-Phe-Cys(Bn)-CHN2; configuration not given here): the “Cathepsin L k′2app” value at Cathepsin L is 390,000 M^−1S^−1. Besides, the “Cathepsin B k′2app” value on Cathepsin B is recorded as 30,000 M^−1S^−1.
As for `CC(C)CC(NC(=O)OCc1ccccc1)C(=O)NC(Cc1ccc(O)cc1)C(=O)C=[N+]=[N-]` (stereo not drawn) [CBZ-Leu-Tyr-CHN2, benzyloxycarbonyl-Leu-Tyr-CHN2] (Cbz-Leu-Tyr-CHN2; configuration not given here), the “Cathepsin L k′2app” value on Cathepsin L was 1,500,000 M^−1S^−1. Besides, the “Calpain k′2app” value with Calpain is given as 1,470 M^−1S^−1. Besides, at Cathepsin B, the “Cathepsin B k′2app” value is below 50 M^−1S^−1.
Turning to `[N-]=[N+]=CC(=O)C(Cc1ccc([N+](=O)[O-])cc1)NC(=O)C(Cc1ccccc1)NC(=O)OCc1ccccc1` (stereo not drawn) [CBZ-Phe-Phe(pNO2)-CHN2, benzyloxycarbonyl-Phe-Phe (p-N02) -CHN2] (Cbz-Phe-[Phe(4-NO2)]-CHN2; configuration not given here), on Cathepsin L, the “Cathepsin L k′2app” value was 190,000 M^−1S^−1. For the same molecule, the “Cathepsin B k′2app” value at Cathepsin B amounted to 50 M^−1S^−1.
Turning to `CSCCC(NC(=O)C(CC(C)C)NC(=O)OCc1ccccc1)C(=O)C=[N+]=[N-]` (stereo not drawn) [CBZ-Leu-Met-CHN2, benzyloxycarbonyl-Leu-Met-CHN2] (Cbz-Leu-Met-CHN2; configuration not given here), the “Cathepsin L k′2app” value at Cathepsin L is listed as 212,000 M^−1S^−1. For the same molecule, the “Cathepsin B k′2app” value at Cathepsin B is given as 4,060 M^−1S^−1.
For the molecule `CC(C)C[C@H](NC(=O)OCc1ccccc1)C(=O)N[C@@H](CC(C)C)C(=O)N[C@@H](Cc1ccc(O)cc1)C(=O)C=[N+]=[N-]` [CBZ-Leu-Leu-Tyr-CHN2, benzyloxycarbonyl -Leu-Leu-Tyr-CHN2] (Cbz-Leu-Leu-Tyr-CHN2), the “Cathepsin L k′2app” value at Cathepsin L is 1,500,000 M^−1S^−1. Besides, the “Calpain k′2app” value in the test on Calpain is 230,000 M^−1S^−1. In addition, the “Cathepsin B k′2app” value at Cathepsin B was 1,300 M^−1S^−1.
